Tested on: Angiotensin II (AII) vasopressor response
Assay: AII Challenge: antagonism of angiotensin II vasopressor response in conscious spontaneously hypertensive rats
Type: in vivo, rat (male okamoto-Aoki SHR)
Conditions: for Average Change: SHR n=2; for Change: single SHR
Excerpt: Conscious Male okamoto-Aoki SHR, 16-20 weeks old, weighing approximately 330 g are purchased from Charles River Labs (Wilmington, Mass.). Conscious rats are restrained in a supine position with elastic tape. The area at the base of the tail is locally anesthetized by subcutaneous infiltration with 2% procaine. […] The cannula is secured, heparinized (1,000 I.U./ml), sealed and the wound is closed. The animals are placed in plastic restraining cages in an upright position. The cannula is attached to a Statham P23Db pressure transducer, and pulsatile blood pressure is recorded to 10-15 minutes with a Gould Brush recorder. […] Angiotensin II (human sequence, Sigma Chem. Co., St. Louis, Mo.) of 0.05 and 0.1 ug/kg i.v. is injected into all rats (predosing response). Then a test compound, vehicle or a known angiotensin II antagonist is administered i.v., i.p. or orally to each set of rats. […] The vasopressor response of angiotensin II is measured for the increase in systolic blood pressure in mmHg.

[1] = 1 mg/kg I.V., AII 0.1 mcg/kg IV, 30 min post dose
[2] = 1 mg/kg I.V., AII 0.1 mcg/kg IV, 60 min post dose
[3] = 3 mg/kg I.V., AII 0.05 mcg/kg IV, 60 min post dose
[4] = 3 mg/kg I.V., AII 0.05 mcg/kg IV, 90 min post dose
[5] = 3 mg/kg I.V., AII 0.05 mcg/kg IV, 180 min post dose
[6] = 3 mg/kg I.V., AII 0.05 mcg/kg IV, 240 min post dose
[7] = 5 mg/kg P.O., AII 0.1 mcg/kg IV, 240 min post dose
[8] = 5 mg/kg P.O., AII 0.1 mcg/kg IV, 300 min post dose

CCCCc1nc2ccc([C@H]3[C@@H]4C(=O)CC[C@@H]4ON3C)cc2c(=O)n1Cc1ccc(-c2ccccc2-c2nnn[nH]2)cc1 (relative stereo) [Example 48]
Average Change (1 mg/kg I.V., AII 0.05 mcg/kg IV, 240 min post dose): 32.5 mmHg | Average Change (1 mg/kg I.V., AII 0.05 mcg/kg IV, 300 min post dose): 36 mmHg | Average Change [1]: 25 mmHg | Average Change [2]: 15 mmHg | Average Change (1 mg/kg I.V., AII 0.1 mcg/kg IV, 90 min post dose): 25 mmHg | Average Change (1 mg/kg I.V., AII 0.1 mcg/kg IV, 120 min post dose): 36 mmHg | Average Change (1 mg/kg I.V., AII 0.1 mcg/kg IV, 180 min post dose): 32.5 mmHg | Average Change (1 mg/kg I.V., AII 0.1 mcg/kg IV, 240 min post dose): 35.5 mmHg | Average Change (1 mg/kg I.V., AII 0.1 mcg/kg IV, 300 min post dose): 36.5 mmHg | Average Change (3 mg/kg I.V., AII 0.05 mcg/kg IV, 30 min post dose): 2.5 mmHg | Average Change [3]: 0 mmHg | Average Change [4]: 5 mmHg | Average Change (3 mg/kg I.V., AII 0.05 mcg/kg IV, 120 min post dose): 4 mmHg | Average Change [5]: 15 mmHg | Average Change [6]: 15 mmHg | Average Change (3 mg/kg I.V., AII 0.05 mcg/kg IV, 300 min post dose): 20 mmHg | Average Change (3 mg/kg I.V., AII 0.1 mcg/kg IV, 30 min post dose): 2.5 mmHg | Average Change (3 mg/kg I.V., AII 0.1 mcg/kg IV, 60 min post dose): 6 mmHg | Average Change (3 mg/kg I.V., AII 0.1 mcg/kg IV, 90 min post dose): 10 mmHg | Average Change (3 mg/kg I.V., AII 0.1 mcg/kg IV, 120 min post dose): 7.5 mmHg | Average Change (3 mg/kg I.V., AII 0.1 mcg/kg IV, 180 min post dose): 22.5 mmHg | Average Change (3 mg/kg I.V., AII 0.1 mcg/kg IV, 240 min post dose): 22.5 mmHg | Average Change (3 mg/kg I.V., AII 0.1 mcg/kg IV, 300 min post dose): 27.5 mmHg | Average Change (5 mg/kg P.O., AII 0.05 mcg/kg IV, 30 min post dose): 10 mmHg | Average Change (5 mg/kg P.O., AII 0.05 mcg/kg IV, 60 min post dose): 10 mmHg | Average Change (5 mg/kg P.O., AII 0.05 mcg/kg IV, 90 min post dose): 8.5 mmHg | Average Change (5 mg/kg P.O., AII 0.05 mcg/kg IV, 120 min post dose): 4 mmHg | Average Change (5 mg/kg P.O., AII 0.05 mcg/kg IV, 180 min post dose): 7.5 mmHg | Average Change (5 mg/kg P.O., AII 0.05 mcg/kg IV, 240 min post dose): 2.5 mmHg | Average Change (5 mg/kg P.O., AII 0.05 mcg/kg IV, 300 min post dose): 3 mmHg | Average Change (5 mg/kg P.O., AII 0.1 mcg/kg IV, 30 min post dose): 16 mmHg | Average Change (5 mg/kg P.O., AII 0.1 mcg/kg IV, 60 min post dose): 12.5 mmHg | Average Change (5 mg/kg P.O., AII 0.1 mcg/kg IV, 90 min post dose): 7 mmHg | Average Change (5 mg/kg P.O., AII 0.1 mcg/kg IV, 120 min post dose): 5 mmHg | Average Change (5 mg/kg P.O., AII 0.1 mcg/kg IV, 180 min post dose): 12.5 mmHg | Average Change [7]: 10 mmHg | Average Change [8]: 10 mmHg | Change (1 mg/kg I.V., AII 0.05 mcg/kg IV, 30 min post dose): 15 mmHg | Change (1 mg/kg I.V., AII 0.05 mcg/kg IV, 60 min post dose): 20 mmHg | Change [1]: 25 mmHg | Change [2]: 15 mmHg | Change [3]: 0 mmHg | Change [4]: 5 mmHg | Change [5]: 15 mmHg | Change [6]: 15 mmHg | Change [7]: 10 mmHg | Change [8]: 10 mmHg

From patent US5294611A, “Angiotensin II receptor blocking 2,3,6 substituted quinazolinones” (American Cyanamid Company, priority 1993, dated 1994)
